Read-outs that look alike come from different tables or passages of the source.
Legend:
[1] = type: physicochemical
[2] = in vivo; cited from earlier work
pharyngitis = settings: ibuprofen 400 mg; meta-analysis; cited from earlier work

## CC(C)Cc1ccc(C(C)C(=O)O)cc1.O.O.[Na] (centres unmarked) [Sod, ibuprofen sodium dihydrate]
[1]; regardless of the long term temperature and humidity conditions
  content of impurities compared among the salts: lowest content of impurities

## CC(C(=O)O)c1ccc(-c2ccccc2)c(F)c1 (centres unmarked) [flurbiprofen]
[2]
  half-life: 4 h

## CC(C)Cc1ccc(C(C)C(=O)O)cc1 (centres unmarked) [ibuprofen, 2-(4-(2-methylpropyl)phenyl)propanoic acid]
pharyngitis
  pain relief in pharyngitis compared with acetaminophene (1000 mg, paracetamol): significant superiority

## ibuprofen lysinate
[1]; T0, closed pill box
  total content of impurities: <0.1 percentage
[1]; T1 month, 25° C., RH 60, closed pill box
  total content of impurities: 0.15 percentage
[1]; T1 month, 40° C., RH 75, closed pill box
  total content of impurities: 0.19 percentage
[1]; T1 month, 40° C., RH 75, open pill box
  total content of impurities: 0.53 percentage
[1]; T2 months, 25° C., RH 60, closed pill box
  total content of impurities: 0.15 percentage
[1]; T2 months, 40° C., RH 75, closed pill box
  total content of impurities: 0.21 percentage
[1]; T2 months, 40° C., RH 75, open pill box
  total content of impurities: 2.21 percentage
[1]; T3 months, 25° C., RH 60, closed pill box
  total content of impurities: 0.17 percentage
[1]; T3 months, 40° C., RH 75, closed pill box
  total content of impurities: 0.27 percentage
[1]; T3 months, 40° C., RH 75, open pill box
  total content of impurities: 3.10 percentage
[1]; T15 d, 40° C., RH 75, closed pill box
  total content of impurities: 0.28 percentage
